# Measurements: US20260130885A1, “ANTIMICROBIAL COMPOSITIONS, PHARMACEUTICAL COMPOSITIONS AND USE THEREOF” (priority 2022, published 2026)
# Where two headings read alike, the source gives them in different places.
# Key:
# S. aureus ATCC29213 = assay: Antibacterial activity assay (MIC, broth microdilution); format: cell-based, Staphylococcus aureus; settings: for MIC: Staphylococcus aureus
# S. aureus NCTC8325 = assay: as above; format: cell-based, Staphylococcus aureus; settings: for MIC: Staphylococcus aureus
# MRSA ATCC33591 = assay: as above; format: cell-based, Staphylococcus aureus; settings: for MIC: Staphylococcus aureus
# MRSA ATCC43300 = assay: as above; format: cell-based, Staphylococcus aureus; settings: for MIC: Staphylococcus aureus
# S. aureus DAP-NS = assay: as above; format: cell-based, Staphylococcus aureus; settings: for MIC: Staphylococcus aureus
# MRSA USA300 = assay: Antibacterial activity assay (MIC by broth microdilution, MBC by subculture); format: cell-based, Staphylococcus aureus
# Description: (§1) The antimicrobial activity was based on MIC and MBC; MIC is the minimum inhibitory concentration and MBC is the minimum bactericidal concentration. The MIC of individual test agents against MRSA USA300 strains was determined using the broth microdilution method according to CLSI guidelines. Briefly, overnight bacterial cultures in LB medium were diluted 1:50 in fresh LB medium and incubated at 37° C. until reaching an OD600 of 0.5 to 0.6. Bacterial suspensions were diluted to a final concentration of 5×10^5 cfu/mL in fresh CAMHB and then exposed to each test agent at increasing doses in triplicate in 96-well plates for 24 hours at 37° C. The MIC of each agent was defined as the lowest concentration without visible bacterial growth. […] The lowest broth dilution that had no viable bacteria was considered the MBC.
# (§2) Then, the combination effect was measured by calculating their corresponding fractional inhibitory concentration index (FICI) with the equation ΣFIC (FICi)=FICA+FICB=(CombA/MICA)+(CombB/MICB), where MICA and MICB are the MICs of drugs A and B alone, respectively, and CombA and CombB are the concentrations of drugs A and B in combination, respectively. Combination effect was defined as an FICI≤0.5, no interaction was defined as an FICI>0.5-4.0, and antagonism was defined as an FICI>4.
# MRSA ATCC33592 = assay: Antibacterial activity assay (MIC, broth microdilution); format: cell-based, Staphylococcus aureus; settings: for MIC: Staphylococcus aureus
# VRSA SJC1200 = assay: as above; format: cell-based, Staphylococcus aureus; settings: for MIC: Staphylococcus aureus, VRSA
# [1] = system: antibiotic-resistant Staphylococcus aureus; assay: MIC against all strains of Table 4; format: cell-based; settings: agent alone, all the bacterial strains under the examination
# Description: as §1
# as §2, with “Combination effect was defined as an FICI≤0.5, no interaction was defined as an FICI>0.5-4.0, and antagonism was defined as an FICI>4.” left out
# The antibacterial activity of the SC5005-DHA composition against a series of antibiotic-resistant Staphylococcus aureus was analyzed, and the results are shown in Table 4.
# MRSA SCCmec VT = assay: Antibacterial activity assay (MIC, broth microdilution); format: cell-based, Staphylococcus aureus; settings: for MIC: Staphylococcus aureus, MRSA
# MRSA ATCC49476 = assay: as above; format: cell-based, Staphylococcus aureus; settings: for MIC: Staphylococcus aureus
# [2] = system: MRSA USA300 persister cells; assay: Persister killing assay; format: cell-based, Staphylococcus aureus; settings: 16×MIC, 16 mg/L; FIG. 1
# Description: (§3) The number of viable bacteria in broth after each exposure period was enumerated by a cfu assay and expressed as cfu/mL; the data shown are the mean±SD (standard deviation) of independent experiments. […] The number of viable bacteria in the broth after each exposure period was calculated by a cfu assay (cfu/mL); the data are shown as the mean±SD of three independent experiments (n=3 for each group). Since the standard deviation of each point is very small, the error line is not shown in each graph. The horizontal dashed line in the upper left graph and the upper right graph represents […] of the bacterial cells killed. In addition, the blank controls in FIG. 1 are shown as filled diamonds.
# (§4) Bacteria were collected by centrifugation at 4000×g for 10 min at 4° C., washed with ice-cold PBS, and suspended in PBS with test agents. Controls received DMSO and ethanol vehicles at concentrations equal to those for drug-treated bacteria. At the designated times, the number of viable bacteria was assessed by serial dilution of a 100 μL aliquot bacterial suspension in PBS and then spread onto LB agar plates. After incubation at 37° C. for 18-24 hours, the number of colonies was counted and expressed as cfu/mL.
# [3] = system: S. aureus NCTC8325 persister cells; assay: Persister killing assay; format: cell-based, Staphylococcus aureus; settings: 16×MIC, 16 mg/L; FIG. 1
# Description: as §3, §4
structure (smiles),measurement,setting,value
"CC/C=C\C/C=C\C/C=C\C/C=C\C/C=C\C/C=C\CCC(=O)O [DHA, docosahexaenoic acid]",MIC,"S. aureus ATCC29213; ATCC29213, agent alone",1020 µg/mL
same,MIC,"S. aureus NCTC8325; NCTC8325, agent alone",1020 µg/mL
same,MIC,MRSA ATCC33591; agent alone,1020 µg/mL
same,MIC,MRSA ATCC43300; agent alone,1020 µg/mL
same,MIC,S. aureus DAP-NS; agent alone,1020 µg/mL
same,MIC,"MRSA USA300; Staphylococcus aureus, agent alone, MRSA USA300 (Table 4), read-out: MIC",1020 µg/mL
same,MBC,"MRSA USA300; Staphylococcus aureus, fatty acid alone, read-out: MBC fatty acid",1020 µg/mL
same,MIC,"MRSA USA300; Staphylococcus aureus, fatty acid alone, read-out: MIC fatty acid",1020 µg/mL
same,MIC,MRSA ATCC33592; agent alone,1020 µg/mL
same,MIC,VRSA SJC1200; agent alone,1020 µg/mL
same,MIC,[1],1020 µg/mL
same,MIC,MRSA SCCmec VT; agent alone,1020 µg/mL
same,MIC,MRSA ATCC49476; agent alone,1020 µg/mL
CNC(=O)c1cc(Oc2ccc(NC(=O)Nc3ccc(Cl)c(C(F)(F)F)c3)cc2)ccn1 [Sorafenib],combination effect,"S. aureus ATCC29213; MIC, +8 mg/L DHA",(Syn) (Synergy (Syn) was defined as an FICI≤0.5)
same,MIC,"S. aureus ATCC29213; ATCC29213, +8 mg/L DHA",0.5 µg/mL
same,MIC,"S. aureus ATCC29213; ATCC29213, agent alone",64 µg/mL
same,combination effect,"S. aureus NCTC8325; MIC, +8 mg/L DHA",(Syn) (Synergy (Syn) was defined as an FICI≤0.5)
same,MIC,"S. aureus NCTC8325; NCTC8325, +8 mg/L DHA",0.5 µg/mL
same,MIC,"S. aureus NCTC8325; NCTC8325, agent alone",4 µg/mL
same,combination effect,"MRSA ATCC33591; MIC, +8 mg/L DHA",(Syn) (Synergy (Syn) was defined as an FICI≤0.5)
same,MIC,MRSA ATCC33591; +8 mg/L DHA,0.5 µg/mL
same,MIC,MRSA ATCC33591; agent alone,> 64 µg/mL
same,combination effect,"MRSA ATCC43300; MIC, +8 mg/L DHA",(Syn) (Synergy (Syn) was defined as an FICI≤0.5)
same,MIC,MRSA ATCC43300; +8 mg/L DHA,0.5 µg/mL
same,MIC,MRSA ATCC43300; agent alone,> 64 µg/mL
same,combination effect,"S. aureus DAP-NS; MIC, +8 mg/L DHA",(Syn) (Synergy (Syn) was defined as an FICI≤0.5)
same,MIC,S. aureus DAP-NS; +8 mg/L DHA,0.5 µg/mL
same,MIC,S. aureus DAP-NS; agent alone,32 µg/mL
same,MBC,MRSA USA300; +8 mg/L DHA,1 µg/mL
same,MIC,MRSA USA300; +8 mg/L DHA,0.5 µg/mL
same,MIC,"MRSA USA300; +8 mg/L DHA, MRSA USA300 (Table 4)",0.5 µg/mL
same,combination effect,"MRSA USA300; MIC, +8 mg/L DHA, MRSA USA300 (Table 4)",(Syn) (Synergy (Syn) was defined as an FICI≤0.5)
same,MBC,"MRSA USA300; Staphylococcus aureus, amide compound alone, read-out: MBC",> 64 µg/mL
same,MIC,"MRSA USA300; Staphylococcus aureus, amide compound alone, read-out: MIC",> 64 µg/mL
same,MIC,"MRSA USA300; agent alone, MRSA USA300 (Table 4)",>64 µg/mL
same,combination effect,"MRSA ATCC33592; MIC, +8 mg/L DHA",(Syn) (Synergy (Syn) was defined as an FICI≤0.5)
same,MIC,MRSA ATCC33592; +8 mg/L DHA,0.5 µg/mL
same,MIC,MRSA ATCC33592; agent alone,> 64 µg/mL
same,combination effect,"VRSA SJC1200; MIC, +8 mg/L DHA",(Syn) (Synergy (Syn) was defined as an FICI≤0.5)
same,MIC,VRSA SJC1200; +8 mg/L DHA,0.5 µg/mL
same,MIC,VRSA SJC1200; agent alone,> 64 µg/mL
same,combination effect,"MRSA SCCmec VT; MIC, +8 mg/L DHA",(Syn) (Synergy (Syn) was defined as an FICI≤0.5)
same,MIC,MRSA SCCmec VT; +8 mg/L DHA,0.5 µg/mL
same,MIC,MRSA SCCmec VT; agent alone,> 64 µg/mL
same,combination effect,"MRSA ATCC49476; MIC, +8 mg/L DHA",(Syn) (Synergy (Syn) was defined as an FICI≤0.5)
same,MIC,MRSA ATCC49476; +8 mg/L DHA,0.5 µg/mL
same,MIC,MRSA ATCC49476; agent alone,> 64 µg/mL
"CN[C@H](CC(C)C)C(=O)N[C@H]1C(=O)N[C@@H](CC(N)=O)C(=O)N[C@H]2C(=O)N[C@H]3C(=O)N[C@H](C(=O)N[C@H](C(=O)O)c4cc(O)cc(O)c4-c4cc3ccc4O)[C@H](O)c3ccc(c(Cl)c3)Oc3cc2cc(c3O[C@@H]2O[C@H](CO)[C@@H](O)[C@H](O)[C@H]2O[C@H]2C[C@](C)(N)[C@H](O)[C@H](C)O2)Oc2ccc(cc2Cl)[C@H]1O [vancomycin, reference compound]",killing of persister cells (in words),[2],resistant to the killing activity
same,killing of persister cells (in words),[3],resistant to the killing activity
